Measured values published in patent US7038014B2, “Polycation-sensing receptor in aquatic species and methods of use thereof” (Brigham and Women's Hospital, priority 1996, dated 2006).
Values joined by “and” are separate entries in the source; they are usually repeats but may differ in a detail not shown here. Equal entries are not always repeated. Where two headings read alike, the source gives them in different places.

How the values were obtained:
SKCaR (SEQ ID NO.: 2) = assay: FURA 2 intracellular calcium assay of SKCaR activation in transfected HEK cells; type: cell-based, dogfish shark (Squalus acanthias)
Text: SKCaR cDNA (SEQ ID NO.: 1) was ligated into the mammalian expression vector PCDNA II and transfected into HEK cells using standard techniques. The presence of SKCaR protein (SEQ ID NO.: 2) in transfected cells was verified by western blotting. Activation of SKCaR (SEQ ID NO.: 2) by extracellular Ca2+, Mg2+ or NaCl was quantified using a well characterized FURA 2 based assay where increases in intracellular Ca2+ produced by SKCaR activation are detected using methodology published previously the Dr. E. Brown's laboratory (Bai, M., S. Quinn, S. Trvedi, O. Kifor, S. H. S. Pearce, M. R. Pollack, K. Krapcho, S. C. Hebert and E. M. Brown. Expression and characterization of inactivating and activating mutations in the human Ca2+-sensing receptor. J. Biol. Chem., 32:19537–19545 (1996)) and expressed as % normalized intracellular calcium response to receptor activation.

[1] = system: isolated urinary bladder of winter flounder (PVCR; thiazide-sensitive NaCl cotransporter); assay: Water reabsorption (Jv) in isolated winter flounder urinary bladder, gravimetric; type: cell-based, winter flounder (Pseudopleuronectes americanus); settings: for water reabsorption (Jv): control Jv 130±28; for inhibition of water reabsorption: application of agent, concentration not stated (summary); for IC50: read-out: half maximal inhibitory concentration for urinary bladder Jv (IC50); for reversibility of inhibitory effect on Jv: upon removal of agonist
Method: To provide further evidence linking Aquatic PVCRs to fish osmoregulation, isolated urinary bladder of winter founder was used to investigate whether PVCRs modulate epithelial cell ion transport. […] Water reabsorption from the urine stored in urinary bladder allows for the concentrations of both Mg^2+ and Ca^2+ to increase to values as high as 84 mM and 7 mM respectively in marine founders (Elger, E. B., et al., J. Como. Physiol., B157:21 (1987)). 5 Net apical to basolateral water flux (Jv) was measured gravimetrically in 10 minute intervals using individual urinary bladder excised from winter flounder. […] The weight of the bladder was measured before and after the experimental period, wherein the experimental period comprised the period of time that the isolated bladder was exposed to test compound. The compound to be tested (e.g., test compound) was added to both serosal and mucosal solutions. The bladders were dried and weighted as described in Renfro et al. The difference in bladder weight prior to and after exposure to test compound is an indication of water reabsorption by the bladder.
Endocrinol. 127:1064–1071 (1990). […]

mammalian CaRs = target: T1, mammalian CaRs (Bos taurus, UniProt P35384); settings: literature value; cited from earlier work
T1 sequence (P35384 20-1085): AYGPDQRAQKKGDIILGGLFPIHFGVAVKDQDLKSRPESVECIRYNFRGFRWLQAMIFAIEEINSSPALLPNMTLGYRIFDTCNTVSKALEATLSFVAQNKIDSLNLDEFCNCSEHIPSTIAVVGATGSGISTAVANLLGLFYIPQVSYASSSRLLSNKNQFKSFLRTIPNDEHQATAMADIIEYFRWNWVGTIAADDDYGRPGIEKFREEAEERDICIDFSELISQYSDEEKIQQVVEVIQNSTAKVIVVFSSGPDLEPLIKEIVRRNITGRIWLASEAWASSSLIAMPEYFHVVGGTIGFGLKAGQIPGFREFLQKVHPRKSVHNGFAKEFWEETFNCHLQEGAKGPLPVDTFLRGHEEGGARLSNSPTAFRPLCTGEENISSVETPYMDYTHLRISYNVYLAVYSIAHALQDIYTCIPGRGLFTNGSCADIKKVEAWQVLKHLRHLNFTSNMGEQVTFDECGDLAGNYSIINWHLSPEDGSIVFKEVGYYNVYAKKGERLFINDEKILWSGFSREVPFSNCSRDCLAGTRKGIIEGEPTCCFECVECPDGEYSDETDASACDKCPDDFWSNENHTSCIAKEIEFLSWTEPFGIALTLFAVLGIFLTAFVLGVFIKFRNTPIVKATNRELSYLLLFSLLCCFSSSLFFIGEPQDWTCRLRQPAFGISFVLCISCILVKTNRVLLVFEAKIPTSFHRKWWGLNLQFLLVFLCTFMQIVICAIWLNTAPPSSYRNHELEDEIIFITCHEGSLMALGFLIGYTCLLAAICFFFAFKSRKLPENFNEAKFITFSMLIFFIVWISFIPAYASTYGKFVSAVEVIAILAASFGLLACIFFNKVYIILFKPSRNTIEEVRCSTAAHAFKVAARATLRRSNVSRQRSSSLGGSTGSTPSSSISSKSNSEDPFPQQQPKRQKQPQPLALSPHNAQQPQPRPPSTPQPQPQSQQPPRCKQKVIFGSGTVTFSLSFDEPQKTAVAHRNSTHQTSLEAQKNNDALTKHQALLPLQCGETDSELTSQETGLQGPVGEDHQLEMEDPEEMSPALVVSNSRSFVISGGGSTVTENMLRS

[2] = extracellular NaCl 50 mM, read-out: EC50 for activation of SKCaR
[3] = extracellular NaCl 550 mM, read-out: EC50 for activation of SKCaR

Compound | EC50 (SKCaR (SEQ ID NO.: 2); [2]) [µM] | EC50 (SKCaR (SEQ ID NO.: 2); [3]) [µM] | inhibition of water reabsorption (Jv) ([1]; 100 μM agent) [%] | water reabsorption (Jv) ([1]; 100 μM agent) [μl/gm/hr] | inhibition of water reabsorption [1] [%] | IC50 [1] [µM] | reversibility of inhibitory effect on Jv [1] | other results
[Ca+2] [Ca2+, calcium] | < 5000 | ~18000 |  |  |  |  |  | effect on sensitivity of SKCaR to Mg2+ (SKCaR (SEQ ID NO.: 2); addition of 3 mM Ca2+, as a function of extracellular NaCl): increases the sensitivity; EC50 (SKCaR (SEQ ID NO.: 2); depending on the extracellular concentration of NaCl, read-out: half maximal activation of SKCaR): 1000 to 15000 µM
[Gd+3] [Gd^3+, gadolinium] |  |  | 75±5 | 32±18 | > 90 | 15 | reversible | 
[Mg+2] [Mg2+, magnesium] | < 20000 | ~80000 |  |  |  |  |  | concentration range in which SKCaR is activated (SKCaR (SEQ ID NO.: 2); modulated by extracellular NaCl): 5 to 40 mM
[Cl-].[Na+] [NaCl] |  |  |  |  |  |  |  | effect on sensitivity of SKCaR to Ca2+ (SKCaR (SEQ ID NO.: 2); increasing concentrations of NaCl): reduce the sensitivity
NS(=O)(=O)c1cc2c(cc1Cl)NCNS2(=O)=O [hydrochlorothiazide] |  |  | 86±2 | 18±7 | > 85 |  |  | 
neomycin |  |  |  |  | > 50 | 150 | reversible | IC50 (mammalian CaRs): 50 µM and 60 to 70 µM; inhibition of water reabsorption (Jv) ([1]; 200 μM agent): 52±4%; water reabsorption (Jv) ([1]; 200 μM agent): 63±10 μl/gm/hr
